Experimental data as given in US4125716A, “Methoxymethyl esters of substituted imidazolidinyl-3-methyl-3-cephem-4-carboxylic acids” (Bristol-Myers Company, priority 1977, dated 1978).
In brackets after ≈: the same amount, converted by molar mass. Where two headings read alike, the source gives them in different places.

Legend:
[1] = system: Streptococus pneumoniae A9585; assay: MIC, tube dilution technique, Streptococcus pneumoniae A9585; format: cell-based; details: overnight, Nutrient Broth, 37° C., read-out: Minimum Inhibitory Concentration
Excerpt: (§1) The methoxymethyl esters of hetacephalexin and hetacefadroxil are the compounds of Formula I wherein R^1 is hydrogen and hydroxy, respectively.

[2] = system: Streptococcus pyogenes A9604; assay: MIC, tube dilution technique, Streptococcus pyogenes A9604; format: cell-based
Excerpt: (§2) […]. The methoxymethyl esters of hetacephalexin and hetacefadroxil are the compounds of Formula I wherein R^1 is hydrogen and hydroxy, respectively.

[3] = system: Staphylococcus aureus A9537; assay: MIC, tube dilution technique, Staphylococcus aureus A9537; format: cell-based
Excerpt: as §2

Escherichia coli A15119 = assay: MIC, tube dilution technique, Escherichia coli A15119; format: cell-based
Excerpt: as §2

[4] = system: Klebsiella pneumoniae A15130; assay: MIC, tube dilution technique, Klebsiella pneumoniae A15130; format: cell-based
Excerpt: as §2

Proteus mirabilis A9900 = assay: MIC, tube dilution technique, Proteus mirabilis A9900; format: cell-based
Excerpt: as §2

Proteus morganii A15153 = assay: MIC, tube dilution technique, Proteus morganii A15153; format: cell-based; details: Morganella morganii, overnight, Nutrient Broth, 37° C., read-out: Minimum Inhibitory Concentration
Excerpt: as §1

[5] = system: Serratia marcescens A20019; assay: MIC, tube dilution technique, Serratia marcescens A20019; format: cell-based; details: overnight, Nutrient Broth, 37° C., read-out: Minimum Inhibitory Concentration
Excerpt: as §1

[6] = system: Enterobacter cloacae A9659; assay: MIC, tube dilution technique, Enterobacter cloacae A9659; format: cell-based; details: overnight, Nutrient Broth, 37° C., read-out: Minimum Inhibitory Concentration
Excerpt: as §1

[7] = system: Enterobacter cloacae A9656; assay: MIC, tube dilution technique, Enterobacter cloacae A9656; format: cell-based; details: overnight, Nutrient Broth, 37° C., read-out: Minimum Inhibitory Concentration
Excerpt: as §1

[8] = system: Pseudomonas aeruginosa A9843A; assay: MIC, tube dilution technique, Pseudomonas aeruginosa A9843A; format: cell-based; details: read-out: Minimum Inhibitory Concentration
Excerpt: as §2

[9] = cited from earlier work
[10] = Antibiotic concentrations of dosing solutions retained for assay (cup-plate assay, CHCl3 extract); format: physicochemical; details: pH 7.4 phosphate buffer / CHCl3
Experimental: (§3) The dosing solutions were stored in an ice bath, used within 6 hours of preparation and an aliquot of each solution was retained for assay.
Dosing solutions were diluted with acetone:1% pH 6 phosphate buffer (1:1) and assayed similar to plasma.

[11] = Tissue levels and tissue penetration following oral administration; format: in vivo, male Sprague-Dawley rats; details: rat
Experimental: as §3
(§4) Rats in each treatment group were administered 1 ml of dosing solution per 100 g of body weight. The four additional control rats were administered a glycerol formal:deionized water (1:1) solution (1ml/100 g b.w.) to serve as a vehicle control group.
Four rats from each treatment group and one rat from the vehicle control group were killed 15, 30, 60 and 120 minutes after dosing. The rats were killed by exsanguination at the bifurcation of the femoral arteries while they were under light ether anesthesia. Approximately 10 ml of blood were obtained from each rat in 10 ml disposable syringes which had been previously rinsed with a 1% Na heparin in 0.9% NaCl solution. Each sample was immediately transferred from the syringe, after removing the needle, to a heparinized vacutainer tube, gently inverted a few times to mix the anticoagulant and centrifuged at 3000 rpm for 5 minutes in a refrigerated centrifuge at 4° C. to separate plasma. Plasma was transferred to a polypropylene snap-cap tube and stored at -20° C. until assayed. […]

[12] = rat, in vivo, po, 200 mg/kg
Experimental: as §3, §4
(§5) Four rats from each treatment group and one rat from the vehicle control group were killed 15, 30, 60 and 120 minutes after dosing. The rats were killed by exsanguination at the bifurcation of the femoral arteries while they were under light ether anesthesia. Approximately 10 ml of blood were obtained from each rat in 10 ml disposable syringes which had been previously rinsed with a 1% Na heparin in 0.9% NaCl solution. Each sample was immediately transferred from the syringe, after removing the needle, to a heparinized vacutainer tube, gently inverted a few times to mix the anticoagulant and centrifuged at 3000 rpm for 5 minutes in a refrigerated centrifuge at 4° C. to separate plasma. Plasma was transferred to a polypropylene snap-cap tube and stored at -20° C. until assayed. Lungs and brains were removed immediately after exsanguination, rinsed with ice-cold 0.9% NaCl solution, blotted dry with gauze, wrapped separately in pieces of aluminum foil, placed in dry ice for quick freezing and stored at -20° C. until assayed.
(§6) Plasma samples were diluted with an equal volume of acetone and further diluted with a 1:1 mixture of acetone:1% pH6 phosphate buffer to a concentration approximating the midpoint of the standard curve. Tissues were homogenized with 2 volumes of 1% pH 6 phosphate buffer in a glass homogenizer with a motor driven teflon pestle. Equal volumes of homogenate and acetone were mixed and, following centrifugation, the supernatant was diluted for assay in a manner similar to plasma. Dosing solutions were diluted with acetone:1% pH 6 phosphate buffer (1:1) and assayed similar to plasma.

[13] = rat, in vivo, po, 200 mg/kg; remark: listed apart in the source
Experimental: as §3, §4, §5, §6

in vivo [14] = details: rat, po, 200 mg/kg; for concentration at 0.5 h / concentration at 1 h / concentration at 2 h: Plasma Level
Experimental: as §3, §4, §5, §6

in vivo [15] = details: rat, po, 200 mg/kg, Brain Level
Experimental: as §3, §4, §5, §6

in vivo [16] = details: rat, po, 200 mg/kg; for Kp at 0.5 h / Kp at 1 h / Kp at 2 h / Kp at […]: Brain to Plasma Ratio
Experimental: as §3, §4, §5, §6

in vivo [17] = details: rat, po, 200 mg/kg, Lung Level
Experimental: as §3, §4, §5, §6

in vivo [18] = details: rat, po, 200 mg/kg
Experimental: as §3, §4, §5, §6

[19] = Streptococcus pyogenes A9604, overnight, Nutrient Broth, 37° C., read-out: Minimum Inhibitory Concentration
[20] = A9537, Staph aureus + 50% serum, A9537, overnight, Nutrient Broth, 37° C., read-out: Minimum Inhibitory Concentration
[21] = A9537, Staphylococcus aureus A9537, overnight, Nutrient Broth, 37° C., read-out: Minimum Inhibitory Concentration
[22] = Escherichia coli A15119, overnight, Nutrient Broth, 37° C., read-out: Minimum Inhibitory Concentration
[23] = Klebsiella pneumoniae A15130, overnight, Nutrient Broth, 37° C., read-out: Minimum Inhibitory Concentration
[24] = Proteus mirabilis A9900, overnight, Nutrient Broth, 37° C., read-out: Minimum Inhibitory Concentration

CC1=C(C(=O)O)N2C(=O)[C@@H](NC(=O)[C@H](N)c3ccc(O)cc3)[C@H]2SC1 [Cefadroxil, cefadroxil, reference compound]
MIC [1]: 1 µg/mL (≈ 2.75 µM) | MIC [2, 19]: 0.25 µg/mL (≈ 0.688 µM) | MIC [3, 20]: 2 µg/mL | MIC [3, 21]: 1 µg/mL (≈ 2.75 µM) | MIC (Escherichia coli A15119; [22]): 16 µg/mL (≈ 44 µM) | MIC [4, 23]: 32 µg/mL (≈ 88.1 µM) | MIC (Proteus mirabilis A9900; [24]): 8 µg/mL (≈ 22 µM) | MIC (Proteus morganii A15153): > 125 µg/mL | MIC [5]: > 125 µg/mL | MIC [6]: > 125 µg/mL | MIC [7]: > 125 µg/mL | MIC [8]: > 125 µg/mL | lipid solubility ([9]; known parent compound): lipid-insoluble | ionization and water solubility ([9]; pH of blood plasma): ionized, water-soluble

CC1=C(C(=O)O)N2C(=O)[C@@H](NC(=O)[C@H](N)c3ccccc3)[C@H]2SC1 [Cephalexin, cephalexin, reference compound]
MIC ([2]; Streptococcus pyogenes, A9604, read-out: Minimum Inhibitory Concentration): 0.5 µg/mL (≈ 1.44 µM) | MIC ([3]; A9537, read-out: Minimum Inhibitory Concentration, Staph aureus + 50% serum, A9537, overnight, Nutrient Broth, 37° C.): 2 µg/mL | MIC ([3]; A9537, read-out: Minimum Inhibitory Concentration, Staphylococcus aureus A9537, overnight, Nutrient Broth, 37° C.): 1 µg/mL (≈ 2.88 µM) | MIC (Escherichia coli A15119; Escherichia coli, A15119, read-out: Minimum Inhibitory Concentration): 8 µg/mL (≈ 23 µM) | MIC ([4]; Klebsiella pneumoniae, A15130, read-out: Minimum Inhibitory Concentration): 16 µg/mL (≈ 46.1 µM) | MIC (Proteus mirabilis A9900; Proteus mirabilis, A9900, read-out: Minimum Inhibitory Concentration): 4 µg/mL (≈ 11.5 µM) | MIC (Proteus morganii A15153): > 125 µg/mL | MIC [5]: > 125 µg/mL | MIC [6]: > 125 µg/mL | MIC [7]: > 125 µg/mL | MIC [8]: > 125 µg/mL

COCOC(=O)C1=C(C)CSC2C(N3C(=O)[C@@H](c4ccccc4)NC3(C)C)C(=O)N12 (stereo partly drawn) [Methoxymethyl Ester of Hetacephalexin]
MIC [1]: 1 µg/mL (≈ 2.32 µM) | MIC [2, 19]: 0.25 µg/mL (≈ 0.579 µM) | MIC [3, 20]: 2 µg/mL | MIC [3, 21]: 1 µg/mL (≈ 2.32 µM) | MIC (Escherichia coli A15119; [22]): 8 µg/mL (≈ 18.5 µM) | MIC [4, 23]: 16 µg/mL (≈ 37.1 µM) | MIC (Proteus mirabilis A9900; [24]): 8 µg/mL (≈ 18.5 µM) | MIC (Proteus morganii A15153): 125 µg/mL (≈ 290 µM) | MIC [5]: > 125 µg/mL | MIC [6]: 125 µg/mL (≈ 290 µM) | MIC [7]: 125 µg/mL (≈ 290 µM) | MIC [8]: > 125 µg/mL | CHCl3 extractability / partition into CHCl3 [10]: all of the antibiotic activity was CHCl3 extractable | penetration of tissue cell membranes and blood-brain barrier compared with cephalexin [11]: more readily penetrates tissue cell membranes and crosses the blood-brain barrier | absorption [12]: rapidly absorbed | Lung to Plasma Ratio × 100, mean ([13]; 15 min): 82.6 | Lung to Plasma Ratio × 100, mean ([13]; 30 min): 60.0 | Lung to Plasma Ratio × 100, mean ([13]; 60 min): 67.2 | Lung to Plasma Ratio × 100, mean ([13]; 120 min): 33.0 | Tmax (in vivo [14]): ≤ 15 min | concentration at 0.5 h (in vivo [14]): 40000 ng/mL | concentration at 1 h (in vivo [14]): 36000 ng/mL | concentration at 2 h (in vivo [14]): 11000 ng/mL | concentration at 0.5 h (in vivo [14]; mean): 45500 ng/mL | concentration at 1 h (in vivo [14]; mean): 34200 ng/mL | concentration at 2 h (in vivo [14]; mean): 14500 ng/mL | concentration at 0.5 h (in vivo [15]): 1700 ng/g | concentration at 1 h (in vivo [15]): 1700 ng/g | concentration at 2 h (in vivo [15]): 500 ng/g | concentration at 0.5 h (in vivo [15]; mean): 2200 ng/g | concentration at 1 h (in vivo [15]; mean): 1800 ng/g | concentration at 2 h (in vivo [15]; mean): 500 ng/g | Tmax (in vivo [16]): ~15 min | Kp at 0.5 h (in vivo [16]): 0.042 | Kp at 1 h (in vivo [16]): 0.047 | Kp at 2 h (in vivo [16]): 0.046 | Kp at […] (in vivo [16]): 0.056 | Kp at 0.5 h (in vivo [16]; mean): 0.047 | Kp at 1 h (in vivo [16]; mean): 0.051 | Kp at 2 h (in vivo [16]; mean): 0.035 | Kp at […] (in vivo [16]; mean): 0.058 | Kp (in vivo [16]; brain peak as percent of plasma level): ~0.06 | concentration at 0.5 h (in vivo [17]): 23000 ng/g | concentration at 1 h (in vivo [17]): 22000 ng/g | concentration at 2 h (in vivo [17]): 4100 ng/g | concentration at 0.5 h (in vivo [17]; mean): 27000 ng/g | concentration at 1 h (in vivo [17]; mean): 22300 ng/g | concentration at 2 h (in vivo [17]; mean): 4700 ng/g | Kp (in vivo [18]): ~0.83 | Tmax (in vivo [18]): ~15 min

COCOC(=O)C1=C(C)CSC2C(N3C(=O)[C@@H](c4ccc(O)cc4)NC3(C)C)C(=O)N12 (stereo partly drawn) [Methoxymethyl Ester of Hetacefadroxil]
MIC [1]: 1 µg/mL (≈ 2.23 µM) | MIC [2, 19]: 0.25 µg/mL (≈ 0.559 µM) | MIC [3, 20]: 2 µg/mL | MIC [3, 21]: 1 µg/mL (≈ 2.23 µM) | MIC (Escherichia coli A15119; [22]): 32 µg/mL (≈ 71.5 µM) | MIC [4, 23]: 63 µg/mL (≈ 141 µM) | MIC (Proteus mirabilis A9900; [24]): 8 µg/mL (≈ 17.9 µM) | MIC (Proteus morganii A15153): 125 µg/mL (≈ 279 µM) | MIC [5]: > 125 µg/mL | MIC [6]: > 125 µg/mL | MIC [7]: 125 µg/mL (≈ 279 µM) | MIC [8]: > 125 µg/mL
